Key:
Assay type in all cases: cell-based, human
[1] = system: U-2 OS, GM847 and Saos-2 ALT cell lines; experiment: C-circle assay of cells treated with PIP-199; conditions: 0.5 μM PIP-199 for 72 h vs DMSO
Description: (a) Schematic of MM2-tamoxifen (40HT)-inducible ER fusion protein-mediated inhibition of the FANCM-BTR complex interaction. […] (c) Tukey boxplots of TIFs in U-2 OS cells expressing MM2-ER or FF>AA-ER fusion proteins in the presence or absence of 40HT. Out of 3 experiments, n=150 cells scored per treatment, **p<0.005, Mann-Whitney test. (d) Representative dot blots and quantitation of C-circle assays in U-2 OS cells expressing MM2-ER or FF>AA-ER fusion proteins in the presence or absence of 40HT. C-circles were normalized to non-induced control. Error bars represent mean±SEM from n 3 experiments, *p<0.05, one-sample t-test. (e) Representative colony formation assay of GM847 and HCT116 cells expressing the MM2-ER fusion protein in the presence or absence of 40HT (top panel). Quantitation of the surviving fraction of colonies for ALT (U-2 OS, GM847 and Saos-2) and telomerase-positive (HeLa and HCT116) cell lines expressing MM2-ER or FF>AA-ER fusion proteins (bottom panel). Colony counts were normalized to non-induced controls. […] (f) Representative dot blots and quantitation of C-circle assays from U-2 OS, GM847, Saos-2, HeLa and HCT116 cells treated with 0.5 μM PIP-199 or vehicle control (DMSO) for 72 h. […] (g) Quantitation of the surviving fraction of colonies from U-2 OS, GM847, Saos-2, HeLa and HCT116 cells treated with PIP-199. […]

[2] = system: U-2 OS, GM847, Saos-2 (ALT), HeLa and HCT116 (telomerase-positive) cells; experiment: Clonogenic assay of cells treated with PIP-199
Method: (a) Quantitation of the surviving fraction of colonies from U-2 OS, GM847, Saos-2 (ALT), HeLa and HCT116 (telomerase-positive) cells treated with PIP-199 after 11 days. Colony counts were normalized to DMSO controls. Error bars represent mean±SEM from n=3 experiments, *p<0.05, n.s.=non-significant, Student's t-test.
Clonogenic assays were performed as described in Franken et al., 2006, with cells plated at 1,000 cells/10 cm dish with or without 200 nM 4-hydroxytamoxifen (Sigma Aldrich), which was replenished on days 4 and 7. For cells treated with PIP-199 (Aobious #AOB33732, CAS No: 622795-76-0), cells were plated at 300 cells/well in 6-well plates, and treated with 0-10 μM of drug in dimethyl sulfoxide (DMSO). Cells were left to grow for 11 days. Plates were washed with 1×PBS, then fixed and stained with 0.5% (w/v) crystal violet in 1 part acetic acid, 7 parts methanol for 2 h at room temperature. Plates were then washed with tap water and left to air dry. Colonies on each plate were counted and the plating efficiency and surviving fraction calculated.

[3] = system: HeLa cells; experiment: Western blot of pS33 (RPA32 phosphorylated at serine 33); conditions: FANCM-depleted HeLa cells
Method: HeLa cervical cancer, HT1080 fibrosarcoma, and HEK293 embryonic kidney cells were purchased from ATCC. […] HeLa, HT1080, HEK293, U2OS, and WI-38 VA13 cells were cultured in high glucose DMEM, GlutaMAX (Thermo Fisher Scientific) supplemented with 10% tetracycline-free fetal bovine serum (Pan BioTech) and 100 U/ml penicillin-streptomycin (Thermo Fisher Scientific). HuO9, Saos2, HOS and SKNAS cells were cultured in high glucose DMEM/F12, GlutaMAX (Thermo Fisher Scientific), supplemented with 10% tetracycline-free fetal bovine serum (Pan BioTech), 100 U/ml penicillin-streptomycin (Thermo Fisher Scientific) and non-essential amino acids (Thermo Fisher Scientific). Mycoplasma contaminations were tested using the VenorGeM Mycoplasma PCR Detection Kit (Minerva Biolabs) according to the manufacturer's instructions. When indicated, cells were incubated with 1 μM camptothecin (Sigma-Aldrich) for 3 hours, 0.2 mM hydroxyurea (Sigma-Aldrich) for 16 h, 20 μM BIBR 1532 (Merck Millipore) for 7 days, and 10 μM RO-3306 (Selleckchem) for 18 h. Cells were trypsinized and pelleted by centrifugation at 500 g at 4° C. for 5 min. […] Supernatant were recovered and protein concentrations were determined by Lowry assay using bovine serum albumin (BSA; Sigma-Aldrich) as standard. […]

[4] = system: HeLa cells; experiment: FACS cell cycle analysis of FANCM-depleted HeLa cells with added agents; conditions: FANCM-depleted HeLa cells; hydroxyurea followed by block release
Method: When indicated, cells were incubated with 1 μM camptothecin (Sigma-Aldrich) for 3 hours, 0.2 mM hydroxyurea (Sigma-Aldrich) for 16 h, 20 μM BIBR 1532 (Merck Millipore) for 7 days, and 10 μM RO-3306 (Selleckchem) for 18 h. […] For fluorescence-activated cell sorting, cells were trypsinized and pelleted by centrifugation at 500 g at 4° C. for 5 min. Cell pellets were either left untreated for viability assays or fixed in 70% ethanol at −20° C. for 30 min and treated with 25 μg/ml RNaseA (Sigma-Aldrich) in 1×PBS at 37° C. for 20 min. Cells were then washed in 1×PBS and stained with 20 μg/ml propidium iodide (Sigma-Aldrich) in 1×PBS at 4° C. for 10 min. Flow cytometry was performed on a BD FACSCalibur or a BD Accuri C6 (BD Biosciences). Data were analyzed using FlowJo software.

[5] = system: U2OS cells; experiment: Telomere FISH combined with EdU detection, RO-3306 control; conditions: RO-3306 treatment; to lower extents than FANCM depletion
Method: (§1) (A) Quantifications experiments for PML or RAD51 immunostaining combined with telomeric DNA FISH. POLD3 immunostaining combined with RAP1 immunostaining (green); and EdU detection combined with and telomeric DNA FISH. Experiments were performed on U2OS cells transfected with the indicated siRNAs and harvested 48 hours after transfection. Each dot represents an individual nucleus. A total of at least 300 nuclei from three independent experiments were analyzed for each sample. Bars and error bars are means and SDs. P values were calculated with a Mann-Whitney U test. ***P<0.001, ****P<0.0001.
24 h after siRNA transfection cells were incubated in 10 μM RO-3306 (Selleckchem). 21.5 h later 10 μM EdU (Thermo Fisher Scientific) was added to the culture medium, followed by a 2.5 h incubation. Cells were first stained as for DNA FISH using the TelC-Cy3 probe and then washed twice with 1×PBS followed by EdU detection using the Click-iT EdU Alexa Fluor 488 Imaging Kit (Thermo Fisher Scientific) according to the manufacturer's instructions. DNA was counterstained with 100 ng/ml DAPI in 1×PBS and coverslips were mounted on slides in Vectashield. Image acquisition and analysis were as for DNA FISH.

[6] = system: U2OS interphase cells; experiment: Telomeric DNA FISH, number and area of telomeric foci, RO-3306 control; conditions: siCt-transfected cells
Method: FIG. 17. FANCM depletion alters telomeric DNA in interphase U2OS cells. (A) Western blot analysis of FANCM protein levels in U2OS cells transfected and treated with RO-3306 as indicated. Cells were harvested 48 hours after transfection. POLD3, RAD51 and PML levels were also analyzed. Beta Actin and LMB1 serve as loading controls. (B) Quantifications of FACS profiles of cells as in A stained with PI. […] R: RO-3306. (C)) Quantifications of numbers of telomeric foci per nucleus in experiments as in A. Each dot represents an individual nucleus. A total of at least 300 nuclei from three independent experiments were analyzed for each sample. Bars and error bars are means and SDs. P values were calculated with a Mann-Whitney U test. (D) Area distribution of telomeric foci areas in experiments as in C. 3D images were sum projected and areas of individual nuclear FISH signals were measured using DAPI staining to identify nuclei (not shown). A total of at least 300 nuclei from three independent experiments were analyzed for each sample. Areas of telomeric foci (in pixels) are binned into 25 intervals of 5-pixel width (x axis; numbers indicate bin centers) and plotted against frequencies (y axis; %). […] (E) Quantification of cells with at least 5 Large (L) foci in experiments as in C. P values were calculated with a two-tailed Student's t-test. *P<0.05, **P<0.005, ***P<0.001, ****P<0.0001. […]

[7] = system: U2OS cells; experiment: PML, RAD51, POLD3 localization at telomeres (IF/FISH), RO-3306 control; conditions: RO-3306 treatment
Method: as §1
Cells grown on coverslips were incubated in CSK buffer for 7 min on ice. All subsequent treatments were performed at room temperature. Cells were fixed with 4% formaldehyde (Sigma-Aldrich) in 1×PBS for 10 min, permeabilized with CSK buffer for 5 min, and incubated in blocking solution (0.5% BSA, 0.1% Tween-20 in 1×PBS) for 1 h. Coverslips were incubated in blocking solution containing primary antibodies for 1 h, washed three times with 0.1% Tween-20 in 1×PBS for 10 min each, and incubated with secondary antibodies diluted in blocking solution for 50 min. DNA was counterstained with 100 ng/ml DAPI in 1×PBS. For combined IF and DNA FISH, cells were again fixed with 4% formaldehyde in 1×PBS for 10 min, washed three times with 1×PBS, incubated in 10 mM Tris-HCl pH 7.2 for 5 min and then denatured and hybridized with TelC-Cy3 probes as described above. DNA was counterstained with 100 ng/ml DAPI in 0.1 M Tris-HCl pH 7.2, 0.15 M NaCl, 0.08% Tween-20 and coverslips were mounted on slides in Vectashield. […]

## CCOC(=O)N1CCN(C(c2ccccn2)c2c(-c3ccccc3)n(O)c3ccccc23)CC1 (centres unmarked) [PIP-199, 4-[(1-Hydroxy-2-phenyl-1H-indol-3-yl)-pyridin-2-yl-methyl]-piperazine-1-carboxylic acid ethyl ester]
[1]
  C-circles: increase in C-circles
[2]; 0-10 μM PIP-199, 11 days, ALT vs telomerase-positive cells
  sensitivity in clonogenic assay (surviving fraction of colonies): hypersensitivity of ALT cells
[2]; normalized to DMSO controls, datapoint exceeding the visible axis of FIG. 11g, cell line not stated
  surviving fraction of colonies: 1.42

## NC(=O)NO [HU, hydroxyurea]
[3]
  pS33 accumulation: did not promote pS33 accumulation
[4]
  cell cycle distribution: did not show an altered cell cycle distribution

## O=C1NC(=NCc2cccs2)S/C1=C\c1ccc2ncccc2c1 [RO-3306]
[5]
  incidence of telomeric EdU foci: increased the incidence of telomeric EdU foci
[6]; 10 μM RO-3306
  number of telomeric foci: less telomeric foci than control cells
[6]; RO-3306-treated
  cells with at least 5 large foci: ~15%
[7]
  number of telomeric PML foci: did not substantially affect
  number of telomeric RAD51 foci: did not substantially affect
[7]; less importantly than FANCM depletion
  number of telomeric POLD3 foci: increased
